Data set [1] addresses T1, HiBiT-tagged IKZF1 (Homo sapiens, UniProt Q13422+Q96SW2).
T1 construct: expressed in transfected cells; host or cells: HT-1080 (ATCC CCL-121), lentiviral transduction
In words: Degradation assay for IKZF1 (HiBiT tag bioluminescence assay). It counts as cell-based. As for the experimental part: (§1) About 10,000 cells in complete DMEM cell culture media were seeded per well. Assay plates were incubated at 37° C. with 5% CO2 for hours, followed by the assessment of IKZF1 or SALL4 degradation using the Nano-Glo HiBiT Lytic Detection Reagent (Cat #N3050, Promega) according to the manufacturer's instruction. Luminescence was then measured with an EnVision plate reader (PerkinElmer) or a PHERAstar plate reader (BMG Labtech). All IKZF1 or SALL4 degradation curves were processed using Collaborative Drug Discovery Vault softwares. IKZF1 or SALL4 levels in compound-treated wells were normalized to that of DMSO control and expressed as Percent of Control (PoC, y). A four Parameter Logistic Model was used to determine the compound's EC50 and DC50, using the following equation:
(§2) A=Ymin (lowest IKZF1 or SALL4 level normalized to DMSO control in response to compound treatment, as determined by curve fit)
(§3) B=Ymax (IKZF1 or SALL4 level in DMSO control)
(§4) C=EC50 half degradation concentration
(§5) EC50=the concentration of compound when y=(Ymax−Ymin)/2
(§6) DC50=test sample concentration when IKZF1 or SALL4 readings y=50% DMSO-treated samples
(§7) y=IKZF1 or SALL4 readings after test sample treatment (normalized to IKZF1 or SALL4 readings in DMSO-treated samples)
(§8) Dmax represents the maximum percentage of IKZF1 or SALL4 protein degradation induced by compound treatment.
In general terms: HiBiT is a short tag that completes a luciferase, so light tracks the accessible tagged protein.

The next data set deals with MM.1S cells. Description: MM.1S cell proliferation assay (CellTiter-Glo). It counts as cell-based. The conditions noted are these: for IC50: Homo sapiens, MM1.S, read-out: MM.1S: IC50; for Ymin: lowest cell viability read normalized to DMSO control, MM.1S, 120 hours. Here is the method: About 3,000 cells in 50 μL of culture medium were seeded per well. Assay plates were incubated at 37° C. with 5% CO2 for 120 hours. After that, 20 μL of the CellTiter-Glo Luminescent Cell Viability Assay Reagent (Cat #G7573, Promega) was added to each well and incubated at room temperature for 30 minutes. Luminescence was then measured with an EnVision plate reader (PerkinElmer) or a PHERAstar plate reader (BMG LABTECH). All percentage of cell growth inhibition curves were processed using Collaborative Drug Discovery Vault softwares. Cell viability reads in compound-treated wells were normalized to that of DMSO control and expressed as Percent of Control (PoC, y). A four Parameter Logistic Model was used to determine the compound's EC50 and DC50, using the following equation:
[formula] • wherein, • A=Ymin (lowest cell viability read normalized to DMSO control in response to compound treatment, as determined by curve fit) • B=Ymax (the maximum value, cell viability read in DMSO control) • C=EC50 half inhibitory concentration • D=Hill Slope • x=compound concentration
as §5
y=cell viability read normalized to DMSO control
On the technique in general: In ATP-based viability assays light output follows the ATP content of the culture.

Data set [2] can be described thus: Pharmacokinetic study in mice. It counts as in vivo. The conditions noted are these: male CD1 mice. As for the experimental part: Objective: The objective of this study was to determine the pharmacokinetics of test compound following a single intravenous (IV) bolus dose and a single oral (PO) administration in male CD1 mice by quantifying the concentrations of the test compound at different times in plasma using LC/MS/MS method.
Materials: Male CD1 mouse (20-30 g, 6-8 weeks, Zhejiang Vital River Laboratory Animal Technology Co., Ltd.).
The clear solution of the test article was injected into CD1 mice via tail vein (free access to food and water), or orally administrated into CD1 mice (free access to food and water). After administration, blood was collected from the dorsal metatarsal vein at 5 min (0.0833 h, IV only), 15 min (0.25 h), 30 min (0.5 h), 60 min (1 h), 2 h, 4 h, 6 h, 8 h and 24 h. Blood samples were placed in an anticoagulant tube with EDTA-K2 at 4° C., mixed adequately and centrifuged at 4000 g for 5 min to get the plasma. The plasma concentration was quantified by LC-MS/MS. The PK parameters were calculated using non-compartmental model by Phoenix WinNonlin 6.1 (Linear/log trapezoidal).

The target of data set [3] is T1, HiBiT-tagged IKZF1. Description: IKZF1 protein degradation kinetics (IKZF1 HiBiT degradation assay, incubation 1, 2 or 4 hours). It counts as cell-based. An excerpt:
The following is a general method for testing compounds-induced degradation of HiBiT-tagged IKZF1 or SALL4 overexpressed in a human cell line, for example, the HT-1080 cell line (American Type Culture Collection (ATCC), catalog number CCL-121). The HT-1080 IKZF1 (or SALL4) HiBiT reporter cell line was engineered via lentiviral transduction to stably overexpress GSPT1 (Δ1-138)/G575N and HiBiT-tagged IKZF1 or SALL4. The HT-1080 IKZF1 (or SALL4) HiBiT reporter cell line was maintained in DMEM media supplemented with 10% fetal bovine serum, IX sodium pyruvate, 1× non-essential amino acids, IX glutamine, 100 U/ml penicillin, and 100 μg/mL streptomycin. The HT-1080 IKZF1 (or SALL4) HiBiT reporter cells were seeded into 384-well plates (Cat #3764, Corning) pre-spotted with DMSO or test compounds. Increasing concentrations of test compounds (ranging from 15.81 pM to 500 nM or from 0.3162 nM to 10 μM at a 3.162-fold increment) or DMSO were dispensed into an empty 384-well plate using an Echo 650 Acoustic Liquid Handler (Beckman Coulter). About 10,000 cells in complete DMEM cell culture media were seeded per well. Assay plates were incubated at 37° C. with 5% CO2 for hours, followed by the assessment of IKZF1 or SALL4 degradation using the Nano-Glo HiBiT Lytic Detection Reagent (Cat #N3050, Promega) according to the manufacturer's instruction. Luminescence was then measured with an EnVision plate reader (PerkinElmer) or a PHERAstar plate reader (BMG Labtech). All IKZF1 or SALL4 degradation curves were processed using Collaborative Drug Discovery Vault softwares. IKZF1 or SALL4 levels in compound-treated wells were normalized to that of DMSO control and expressed as Percent of Control (PoC, y). A four Parameter Logistic Model was used to determine the compound's EC50 and DC50, using the following equation: […]
The IKZF1 protein degradation kinetics of compounds 9-B and 9-A was evaluated using the IKZF1 HiBiT degradation assay as described above except that the incubation time was changed to 1, 2 or 4 hours.

For another data set, the target named is T2, HiBiT-tagged SALL4 (Homo sapiens, UniProt Q96SW2+Q9UJQ4).
T2 construct: expressed in transfected cells; host or cells: HT-1080 (ATCC CCL-121), lentiviral transduction
In words: Degradation assay for SALL4 (HiBiT tag bioluminescence assay). It counts as cell-based. As for the experimental part:
as §1, §2, §3, §4, §5, §6, §7, §8

Setting [4] is: HT-1080, Table 1; HT-1080 IKZF1 HiBiT reporter cells; maximum percentage of protein degradation.
Where [5] appears, read: Table 1; HT-1080 IKZF1 HiBiT reporter cells; performed once with technical duplicates, some compounds tested on different days; read-out: HiBiT IKZF1: DC50.
The mark [6] stands for this setting: antiproliferative, 120 hours incubation, CellTiter-Glo.
[7] abbreviates: mouse, Table 5, PO (10 mg/kg), plasma.
Where [8] appears, read: after 1 hour of compound incubation.
Setting [9] is: HT-1080, Table 1; HT-1080 SALL4 HiBiT reporter cells; maximum percentage of protein degradation.
The mark [10] stands for this setting: Table 1; HT-1080 SALL4 HiBiT reporter cells; performed once with technical duplicates, some compounds tested on different days; read-out: HiBiT SALL4: DC50.
[11] abbreviates: mouse, Table 4, PO (10 mg/kg), plasma.

Each structure is given as a SMILES string. Where two headings read alike, the source gives them in different places.

T1 sequence (Q13422 whole entry): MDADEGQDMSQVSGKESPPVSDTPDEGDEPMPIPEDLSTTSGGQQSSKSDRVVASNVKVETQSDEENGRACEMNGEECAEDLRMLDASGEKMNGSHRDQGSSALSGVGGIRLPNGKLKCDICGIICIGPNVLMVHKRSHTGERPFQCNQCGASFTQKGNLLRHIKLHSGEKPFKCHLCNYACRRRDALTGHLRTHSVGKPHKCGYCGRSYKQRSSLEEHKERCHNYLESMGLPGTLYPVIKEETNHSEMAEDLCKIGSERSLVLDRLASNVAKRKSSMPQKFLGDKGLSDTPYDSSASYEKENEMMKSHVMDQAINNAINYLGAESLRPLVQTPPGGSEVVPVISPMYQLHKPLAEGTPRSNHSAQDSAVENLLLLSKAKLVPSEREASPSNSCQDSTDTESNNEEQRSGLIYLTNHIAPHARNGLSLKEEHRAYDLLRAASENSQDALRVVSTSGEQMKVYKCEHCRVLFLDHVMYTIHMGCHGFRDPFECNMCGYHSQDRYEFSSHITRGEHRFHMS
T1 sequence (Q96SW2 whole entry): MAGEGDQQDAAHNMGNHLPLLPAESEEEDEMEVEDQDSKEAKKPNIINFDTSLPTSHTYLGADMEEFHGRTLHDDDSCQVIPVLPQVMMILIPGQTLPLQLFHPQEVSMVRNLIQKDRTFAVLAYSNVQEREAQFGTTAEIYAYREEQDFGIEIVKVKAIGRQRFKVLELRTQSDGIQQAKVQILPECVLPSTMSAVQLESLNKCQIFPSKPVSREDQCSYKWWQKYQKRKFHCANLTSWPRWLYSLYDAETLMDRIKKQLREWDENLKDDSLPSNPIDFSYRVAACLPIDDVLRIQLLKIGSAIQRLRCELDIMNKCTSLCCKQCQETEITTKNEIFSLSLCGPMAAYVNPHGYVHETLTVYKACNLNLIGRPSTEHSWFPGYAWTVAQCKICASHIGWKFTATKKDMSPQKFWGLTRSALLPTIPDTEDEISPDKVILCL
T1 sequence (Q16531 whole entry partner): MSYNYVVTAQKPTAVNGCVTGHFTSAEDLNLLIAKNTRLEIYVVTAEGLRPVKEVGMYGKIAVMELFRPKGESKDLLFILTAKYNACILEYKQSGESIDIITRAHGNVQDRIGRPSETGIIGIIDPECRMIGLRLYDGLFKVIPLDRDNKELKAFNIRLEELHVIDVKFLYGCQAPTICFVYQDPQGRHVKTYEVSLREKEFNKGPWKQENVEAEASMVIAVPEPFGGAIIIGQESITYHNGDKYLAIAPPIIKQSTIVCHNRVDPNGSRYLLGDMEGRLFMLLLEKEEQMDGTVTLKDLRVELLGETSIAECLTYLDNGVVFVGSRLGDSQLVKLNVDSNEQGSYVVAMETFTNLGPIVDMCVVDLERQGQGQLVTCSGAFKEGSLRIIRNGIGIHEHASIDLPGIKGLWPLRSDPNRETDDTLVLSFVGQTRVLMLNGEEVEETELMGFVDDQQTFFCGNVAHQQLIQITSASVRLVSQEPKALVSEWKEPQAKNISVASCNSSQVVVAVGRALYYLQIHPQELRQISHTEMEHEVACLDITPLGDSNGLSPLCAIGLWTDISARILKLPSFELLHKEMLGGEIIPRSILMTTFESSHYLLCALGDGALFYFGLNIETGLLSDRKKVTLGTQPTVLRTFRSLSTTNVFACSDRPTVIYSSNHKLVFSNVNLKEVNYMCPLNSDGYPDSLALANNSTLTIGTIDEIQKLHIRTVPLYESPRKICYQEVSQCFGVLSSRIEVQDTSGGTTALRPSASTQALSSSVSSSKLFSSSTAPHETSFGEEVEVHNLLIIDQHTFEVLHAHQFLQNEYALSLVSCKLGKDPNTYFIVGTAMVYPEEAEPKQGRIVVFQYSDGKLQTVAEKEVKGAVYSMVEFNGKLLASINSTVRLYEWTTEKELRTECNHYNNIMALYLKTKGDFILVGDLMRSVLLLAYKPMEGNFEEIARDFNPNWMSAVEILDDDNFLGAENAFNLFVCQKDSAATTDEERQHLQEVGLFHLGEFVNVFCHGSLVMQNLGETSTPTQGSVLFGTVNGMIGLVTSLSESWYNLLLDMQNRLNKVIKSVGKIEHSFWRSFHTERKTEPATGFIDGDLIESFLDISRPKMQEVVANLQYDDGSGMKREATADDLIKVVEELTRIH
T2 sequence (Q9UJQ4 whole entry): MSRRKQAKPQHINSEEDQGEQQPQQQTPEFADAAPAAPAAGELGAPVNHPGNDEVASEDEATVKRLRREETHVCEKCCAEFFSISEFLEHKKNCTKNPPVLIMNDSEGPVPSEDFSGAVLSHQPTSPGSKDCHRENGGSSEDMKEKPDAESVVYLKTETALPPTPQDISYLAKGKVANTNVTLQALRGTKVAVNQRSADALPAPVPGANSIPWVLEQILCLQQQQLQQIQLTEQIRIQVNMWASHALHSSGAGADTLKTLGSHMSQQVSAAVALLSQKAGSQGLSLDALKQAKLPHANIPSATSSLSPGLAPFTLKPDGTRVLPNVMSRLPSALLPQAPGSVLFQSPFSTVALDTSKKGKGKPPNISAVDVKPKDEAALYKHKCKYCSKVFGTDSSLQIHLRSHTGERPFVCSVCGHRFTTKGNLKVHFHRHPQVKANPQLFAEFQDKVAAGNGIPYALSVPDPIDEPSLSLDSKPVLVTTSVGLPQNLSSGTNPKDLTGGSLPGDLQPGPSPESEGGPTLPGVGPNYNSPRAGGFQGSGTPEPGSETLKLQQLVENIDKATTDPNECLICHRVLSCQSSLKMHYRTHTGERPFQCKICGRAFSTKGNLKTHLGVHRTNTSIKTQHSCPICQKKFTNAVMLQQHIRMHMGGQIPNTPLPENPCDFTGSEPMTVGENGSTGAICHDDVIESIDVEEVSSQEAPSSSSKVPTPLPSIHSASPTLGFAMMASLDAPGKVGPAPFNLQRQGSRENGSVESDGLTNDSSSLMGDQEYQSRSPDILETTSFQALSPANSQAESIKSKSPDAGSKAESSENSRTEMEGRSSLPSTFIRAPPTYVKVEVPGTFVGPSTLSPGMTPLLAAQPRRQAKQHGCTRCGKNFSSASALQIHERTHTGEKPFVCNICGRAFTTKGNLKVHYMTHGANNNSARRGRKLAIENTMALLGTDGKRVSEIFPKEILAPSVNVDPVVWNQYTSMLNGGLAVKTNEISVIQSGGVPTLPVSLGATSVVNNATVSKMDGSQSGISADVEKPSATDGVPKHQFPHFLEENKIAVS
T2 sequence (Q96SW2 whole entry): as the sequence (Q96SW2 whole entry) above
T2 sequence (Q16531 whole entry partner): as the sequence (Q16531 whole entry partner) above

Broadly, the Dmax is the largest share of the target that was removed. The low end stands for shallow degradation, the high end for deep degradation. The DC50 is the concentration at which degradation of the target reaches its halfway point. For orientation: IC50 means the concentration that gives 50% inhibition. For orientation: AUC(0-t) means the area under the concentration-time curve up to a stated or last time point. For orientation: Cmax means the peak of the concentration-time curve. Usually half-life stands for the time needed for the level to fall by half in the phase considered. Higher therefore signals slow decline. Take `N#Cc1ccc(N2CCN(Cc3ccc(Cc4ccc5c6c(cc(F)cc46)C(=O)N5[C@H]4CCC(=O)NC4=O)cc3)CC2)c(F)c1` (single isomer, unassigned) [Compound 9-B]: the Dmax on HiBiT-tagged IKZF1 [1] (setting [4]) was 90.9%; on HiBiT-tagged IKZF1 [1] (HT-1080, Table 2; HT-1080 IKZF1 HiBiT reporter cells; all compounds tested on the same day) it was 93.8%; on HiBiT-tagged IKZF1 [3] (setting [8]), roughly 77%; at HiBiT-tagged IKZF1 [3] (after 4 hours of incubation), 92%; at HiBiT-tagged SALL4 (setting [9]), 59.5%; on HiBiT-tagged SALL4 (HT-1080, Table 2; HT-1080 SALL4 HiBiT reporter cells; all compounds tested on the same day), 59.4%. The DC50 at HiBiT-tagged IKZF1 [1] (setting [5]) is 0.134 nM; at HiBiT-tagged IKZF1 [1] (Table 2; HT-1080 IKZF1 HiBiT reporter cells; all compounds tested on the same day; read-out: HiBiT IKZF1: DC50), 0.102 nM; on HiBiT-tagged IKZF1 [3] (setting [8]) it was roughly 0.4 nM; on HiBiT-tagged IKZF1 [3] (after 4 hours of incubation) it was less than 0.2 nM; at HiBiT-tagged SALL4 (setting [10]) it was 104 nM; at HiBiT-tagged SALL4 (Table 2; HT-1080 SALL4 HiBiT reporter cells; all compounds tested on the same day; read-out: HiBiT SALL4: DC50), 102 nM. Moreover, in the data set with MM.1S cells (setting [6]), the IC50 was determined as 0.022 nM. Also, in the data set with MM.1S cells, the Ymin is reported as 5.6 (n = 3) %. Moreover, in data set [2] (setting [7]), the area under the curve AUC(0-t) was 73600 ng·h/mL. Further, in data set [2] (setting [7]), the maximum concentration (Cmax) worked out at 4390 ng/mL. Besides, the half-life in data set [2] (setting [7]) was 8.3 h.

Turning to `N#Cc1ccc(N2CCN(Cc3ccc(COc4cccc5c4CN([C@H]4CCC(=O)NC4=O)C5=O)cc3)CC2)c(F)c1` [CC-92480, reference compound], the Dmax at HiBiT-tagged IKZF1 [1] (Table 2; HT-1080 IKZF1 HiBiT reporter cells; all compounds tested on the same day) stood at 95.5%; on HiBiT-tagged SALL4 (Table 2; HT-1080 SALL4 HiBiT reporter cells; all compounds tested on the same day), 75.8%. Besides, the DC50 at HiBiT-tagged IKZF1 [1] (read-out: HiBiT IKZF1: DC50; Table 2; HT-1080 IKZF1 HiBiT reporter cells; all compounds tested on the same day) was 0.105 nM; at HiBiT-tagged SALL4 (read-out: HiBiT SALL4: DC50; Table 2; HT-1080 SALL4 HiBiT reporter cells; all compounds tested on the same day), 3.4 nM. The IC50 in the data set on MM.1S cells (setting [6]) came to 0.041 nM. Further, the Ymin with MM.1S cells was 7.5 (n = 7) %.

By clearance is commonly meant the rate of elimination divided by the concentration. On to `N#Cc1ccc(N2CCN(Cc3ccc(Cc4ccc5c6c(cc(F)cc46)C(=O)N5C4CCC(=O)NC4=O)cc3)CC2)c(F)c1` (stereo not drawn) [Compound 9], for which the Dmax came to 91.6% on HiBiT-tagged IKZF1 [1] (setting [4]) and 58.1% on HiBiT-tagged SALL4 (setting [9]). The values for the 50% degradation concentration (DC50) at HiBiT-tagged IKZF1 [1] (setting [5]) and on HiBiT-tagged SALL4 (setting [10]) were 0.074 nM and 32 nM, respectively. Moreover, the IC50 in the data set with MM.1S cells (setting [6]) was 0.04 nM. For the same compound, the Ymin with MM.1S cells is given as 4.0 (n = 2) %. In data set [2] (Table 4, PO (10 mg/kg) vs IV (2 mg/kg)), the F is reported as 27.1%. Also, the AUC(0-t) in data set [2] (mouse, IV (2 mg/kg), plasma) stood at 17200 ng·h/mL; in data set [2] (setting [11]) it was 23300 ng·h/mL. In addition, the clearance in data set [2] (mouse, IV (2 mg/kg), plasma) was 1.57 mL/min/kg. The compound further showed a half-life in data set [2] (mouse, IV (2 mg/kg), plasma) of 10.2 h. In addition, the Vd in data set [2] (mouse, IV (2 mg/kg), plasma, read-out: Vss) was 1.32 L/kg. Besides, the highest level in data set [2] (setting [11]) (Cmax) was 1460 ng/mL.

As for `Nc1cccc2c1C(=O)N(C1CCC(=O)NC1=O)C2=O` (stereo not drawn) [Pomalidomide], the Dmax at HiBiT-tagged IKZF1 [1] (Table 1; HT-1080 IKZF1 HiBiT reporter cells; maximum percentage of protein degradation) is 79.5%; at HiBiT-tagged SALL4 (Table 1; HT-1080 SALL4 HiBiT reporter cells; maximum percentage of protein degradation), 69.7%. Further, the IC50 in the data set on MM.1S cells (120 h) is greater than 30 nM.
